This is an account of results in US20230128304A1, “BENZIMIDAZOLE COMPOUND FOR THE TREATMENT OF METABOLIC DISORDERS” (ACHÉ LABORATÓRIOS FARMACÊUTICOS S.A., priority 2020, published 2023).

Test [1] deals with SD rats maintained on a high fat diet (HFD). The experiment in a line: Body weight and food intake in HFD diet-induced obesity model. The following applies: for Daily food intake compared with HFD Vehicle: compound II apart from isolated changes. In kind it is in vivo, Sprague Dawley (SD) rats. The method, then: The benzimidazole compound of formula I, the comparative compound of formula II, and dapagliflozin were administered to animals fed HFD. Vehicle was administered to animals fed normal chow or HFD. Data is shown as adjusted means—SEM of n=9-10 animals (BW and BW gain) or n=5 cages (FI and average daily FI) per group. Data was analyzed by ANCOVA with BW on day 1 (A and C) or average FI during the baseline period (B and D) as covariate, excluding the Chow Vehicle group. Treatment groups were compared with HFD Vehicle by separate Williams' tests (compounds I or II) or multiple t tests (dapagliflozin) and considered statistically significant if p<0.05. Statistical significance is denoted as “a”, “b”, “c”, “d” and “e” for HFD groups treated respectively with dapagliflozin, compound II at 10 mg/kg, compound II at 30 mg/kg, compound I at 10 mg/kg and compound I at 30 mg/kg. # (p=0.051) and & (p=0.098) mean trends toward significance in comparisons with HFD Vehicle.
J Endocrinol. 234(3):255-267; Devenny J J et al. (2012). Weight loss induced by chronic dapagliflozin treatment is attenuated by compensatory hyperphagia in diet-induced obese (DIO) rats. Obesity. 20: 1645-1652.).
(§1) In the HFD model, animals were initially maintained on a HFD for 4 weeks to induce a significant body weight (BW) gain before treatment was initiated. […] Two vehicle-treated control groups, fed either normal chow (Chow Vehicle) or HFD (HFD Vehicle), were also included.

Test [2] has the same test system. As to the kind of experiment: Body composition (FoodScan near-infrared analyzer) in HFD model. In kind it is in vivo, Sprague Dawley (SD) rats. Particulars: for Fat / Final carcass weight / Protein / Water: adjusted means ± SEM; for Body composition parameters (water, protein, fat content, final carcass weight) against HFD Vehicle: 10 and 30 mg/kg. The method, then:
as §1
The effects on body composition and on the weight of selected tissues (brown fat pad, epididymal fat pad, liver or gastrocnemius muscle) were assessed after the study was terminated (days 65/66). The weights of tissues were analyzed in two ways: i) BW on day 1 was used as a covariate to correct for differences in the BW at the start of the study or ii) the terminal BW (days 65/66) was used as a covariate to correct for changes due to weight loss (Table 3). […] Body composition was determined using FoodScan™ near-infrared analyzer analysis, which assessed water, protein and fat content and the final carcass weight (Table 4).

The test system is the same in test [3]. The experiment in a line: Weight of selected tissues in HFD model. Type of test: in vivo, Sprague Dawley (SD) rats. The method, then:
In the HFD model, animals were initially maintained on a HFD for 4 weeks to induce a significant body weight (BW) gain before treatment was initiated. […] Two vehicle-treated control groups, fed either normal chow (Chow Vehicle) or HFD (HFD Vehicle), were also included. The effects on body composition and on the weight of selected tissues (brown fat pad, epididymal fat pad, liver or gastrocnemius muscle) were assessed after the study was terminated (days 65/66). […] Body composition was determined using FoodScan™ near-infrared analyzer analysis, which assessed water, protein and fat content and the final carcass weight (Table 4).

Test [4] shares this test system. As to the kind of experiment: Liver histopathology (NAFLD activity score) in HFD model. In kind it is in vivo, Sprague Dawley (SD) rats. The method, then: (§2) The parameters were assessed following a chronic oral treatment with compound I at 10 and 30 mg/kg, dapagliflozin at 5 mg/kg, or vehicle to animals receiving HFD. Vehicle was also administered to animals receiving normal chow. The liver triglycerides were quantified using Cobas C111 clinical analyzer TRIGL 04657594 190. Glycogen quantification in liver samples was performed using commercial kits (Thermo BioVision, Glycogen Assay Kit, K646-100). Data is shown as means±SEM (A-D) or raw data including mean±SEM (E-H), n=9-10. The statistical analysis of liver triglycerides (A-B) and glycogen (C-D) was performed by general linear model of log transformed data (triglycerides only) with treatment and cohort as factors and termination order and BW on day 1 as covariates. Treatment groups were compared with HFD Vehicle by separate Williams' tests (compound I) or multiple t tests (dapagliflozin) and statistically significant differences are denoted by * (p<0.05), ** (p<0.01) and *** (p<0.001). Comparisons against Chow Vehicle were performed by multiple t tests (HFD Vehicle and dapagliflozin groups) or Dunnett's test (compound I) and statistically significant differences are denoted by † (p<0.05), †† (p<0.01) and ††† (p<0.001). Analysis of liver histopathology data (E-H) was done by exact Wilcoxon rank sum test. Statistical differences are denoted by * (p<0.05) in comparison with HFD Vehicle and by † (p<0.05), †† (p<0.01) and ††† (p<0.001) when compared with Chow Vehicle.
as §1
Liver was also assessed for NAFLD by histopathological analysis (FIGS. 3E-H). Samples were sectioned, stained and scored following a method previously described (Kleiner D E et al. (2005). Design and validation of a histological scoring system for nonalcoholic fatty liver disease. Hepatology. 41(6):1313-21; Nishida T et al. (2013). Spontaneous onset of nonalcoholic steatohepatitis and hepatocellular carcinoma in a mouse model of metabolic syndrome. Lab Invest. 93(2):230-41). The parameters analyzed were: steatosis (0-3), lobular inflammation (0-3) and hepatocellular ballooning (0-2). The total “NAFLD activity score” (NAS) score was calculated as the sum of all parameters (0-8). The liver of Chow Vehicle animals had no pathology scores (zero) for steatosis, lobular inflammation, hepatocellular ballooning and no score for total NAS.

Test [5] has the same test system. The experiment in a line: Plasma glucose, insulin and HOMA-IR in HFD model. In kind it is in vivo, Sprague Dawley (SD) rats. The method, then:
Vehicle was administered to animals fed normal chow or HFD. The parameters were assessed on day 51. […] In the HFD model, animals were initially maintained on a HFD for 4 weeks to induce a significant body weight (BW) gain before treatment was initiated. […] Two vehicle-treated control groups, fed either normal chow (Chow Vehicle) or HFD (HFD Vehicle), were also included.

The target in a further test is MT1 receptor (Homo sapiens, UniProt P48039). The experiment in a line: cell-based. Particulars: read-out: MT1 agonism I.A. (intrinsic activity).
The test system of test [6] is SD rats maintained on a high fat diet (HFD). As to the kind of experiment: Liver triglycerides and glycogen in HFD model. In kind it is in vivo, Sprague Dawley (SD) rats. The following applies: 5 mg/kg. The method, then:
as §2, with “Comparisons against Chow Vehicle were performed by multiple t tests (HFD Vehicle and dapagliflozin groups) or Dunnett's test (compound I) and statistically significant differences are denoted by † (p<0.05), †† (p<0.01) and ††† (p<0.001). Analysis of liver histopathology data (E-H) was done by exact Wilcoxon rank sum test. Statistical differences are denoted by * (p<0.05) in comparison with HFD Vehicle and by † (p<0.05), †† (p<0.01) and ††† (p<0.001) when compared with Chow Vehicle.” left out
As only the benzimidazole derivative of formula I according to the present invention, but not the comparative benzimidazole compound II, impacted BW gain, liver weight, plasma glucose levels and HOMA-IR in the HFD model, specific effects of compound I in the liver of the animals were evaluated in comparison with dapagliflozin and control groups. […]

[7] abbreviates: 10 mg/kg, data adjusted for BW on day 1, mean ± SEM, in g (unit assumed).
Setting [8] is: 10 mg/kg, data adjusted for BW on day 65/66, mean ± SEM, in g (unit assumed).
Where [9] appears, read: 30 mg/kg, data adjusted for BW on day 1, mean ± SEM, in g (unit assumed).
The mark [10] stands for this setting: 30 mg/kg, data adjusted for BW on day 65/66, mean ± SEM, in g (unit assumed).
[11] abbreviates: 5 mg/kg p.o., day 51 after 4-hour fast, p<0.001.
Setting [12] is: 5 mg/kg, data adjusted for BW on day 1, mean ± SEM, in g (unit assumed).
[13] abbreviates: 5 mg/kg, data adjusted for BW on day 65/66, mean ± SEM, in g (unit assumed).

MT1 receptor, sequence (P48039 whole entry): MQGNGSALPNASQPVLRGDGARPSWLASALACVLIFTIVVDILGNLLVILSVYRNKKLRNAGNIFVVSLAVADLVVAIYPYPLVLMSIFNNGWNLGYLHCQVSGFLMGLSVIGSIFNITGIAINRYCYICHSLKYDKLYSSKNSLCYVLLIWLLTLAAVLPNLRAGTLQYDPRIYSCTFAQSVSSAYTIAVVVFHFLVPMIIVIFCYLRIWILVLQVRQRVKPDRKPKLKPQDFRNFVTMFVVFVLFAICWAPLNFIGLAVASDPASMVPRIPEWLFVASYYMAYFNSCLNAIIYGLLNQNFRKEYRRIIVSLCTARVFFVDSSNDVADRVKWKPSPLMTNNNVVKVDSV

Take `COc1cc2c(cc1Cl)nc(OC)n2CCNC(C)=O` [Compound of formula I, N-[2-(5-Chloro-2,6-dimethoxy-benzoimidazol-1-yl)-ethyl]-acetamide]: the “Body weight (BW) compared with HFD Vehicle” value in test [1] (10 and 30 mg/kg p.o., days 13 to 32, p<0.05) is listed as “significantly reduced body weight (BW)”. In test [1] (10 and 30 mg/kg p.o., p=0.098), the “BW gain from day 1 to 57 compared with HFD Vehicle” value is on record as “trend towards reduced BW gain”. Moreover, the “Daily food intake compared with HFD Vehicle” value in test [1] (10 and 30 mg/kg) is on record as “did not affect”. In test [2] (10 mg/kg), the Fat worked out at 20.5 ± 1.5 %, the Final carcass weight was 561.7 ± 13.0^ g, the Protein was determined as 19.7 ± 0.4% and the Water is on record as 56.1 ± 1.2 %. For the same compound, in test [2] (30 mg/kg), the Fat was determined as 20.0 ± 1.7 %, the Final carcass weight is 584.0 ± 13.6^ g, the Protein was found to be 19.6 ± 0.5 % and the Water came out at 56.5 ± 1.4 %. In test [2], the “Body composition parameters (water, protein, fat content, final carcass weight) against HFD Vehicle” value was “No effect”. In test [3] (10 mg/kg, data adjusted for BW on day 1, mean ± SEM), this compound displayed a Liver weight of 17.7 ± 0.8. For the same compound, in test [3] (setting [7]), the “Brown adipose tissue weight” value is listed as 0.700 ± 0.091, the “Epididymal fat pads weight” value came to 13.1 ± 1.5 and the Gastrocnemius weight came to 3.30 ± 0.14. In test [3] (setting [8]), the “Brown adipose tissue weight” value turned out to be 0.719 ± 0.084, the “Epididymal fat pads weight” value came to 13.9 ± 1.1, the Gastrocnemius weight was found to be 3.32 ± 0.15 and the Liver weight worked out at 18.5 ± 0.5. Further, the Liver weight in test [3] (30 mg/kg, data adjusted for BW on day 1, mean ± SEM) is given as 18.6 ± 0.9. In test [3] (setting [9]), the “Brown adipose tissue weight” value was 0.801 ± 0.066, the “Epididymal fat pads weight” value is listed as 13.9 ± 1.0 and the Gastrocnemius weight is 3.35 ± 0.10. Also, in test [3] (setting [10]), the “Brown adipose tissue weight” value worked out at 0.808 ± 0.062, the “Epididymal fat pads weight” value was found to be 14.2 ± 1.2, the Gastrocnemius weight was 3.36 ± 0.10 and the Liver weight worked out at 18.9 ± 0.5. Also, the “Liver weight compared to HFD Vehicle (in words)” value in test [3] (both groups (10 and 30 mg/kg), corrected by the initial BW, p=0.12) was “trend toward liver weight reduction”. Further, the “Steatosis score change compared to the HFD group” value in test [4] (30 mg/kg p.o., p<0.05) is listed as −57%. Besides, the “Total NAS value versus HFD Vehicle” value in test [4] (30 mg/kg, p=0.126) is reported as “trend toward significance”. Also, the Lobular inflammation score entry in test [4] (30 mg/kg, no longer significantly different from the Chow Vehicle control) was “reduced”.
With `CCOc1nc2cc(Cl)c(OC)cc2n1CCCNC(C)=O` [Compound of formula II, N-[3-(5-Chloro-2-ethoxy-6-methoxy-benzoimidazol-1-yl)-propyl]-acetamide], in test [1] (10 and 30 mg/kg), the “Daily BW gain” value is listed as “no significant effects” and the “Daily food intake compared with HFD Vehicle” value is “did not affect”. In test [2] (10 mg/kg), the Fat came out at 20.8 ± 2.3 %, the Final carcass weight was determined as 587.6 ± 6.3 g, the Protein amounted to 19.2 ± 0.6 % and the Water is on record as 56.0 ± 1.8 %. Besides, in test [2] (30 mg/kg), the Fat was 17.9 ± 2.3 %, the Final carcass weight worked out at 593.3 ± 11.4 g, the Protein is listed as 19.8 ± 0.5% and the Water is given as 58.4 ± 1.9^ %. The “Body composition parameters (water, protein, fat content, final carcass weight) against HFD Vehicle” value in test [2] is on record as “No effect”. For the same compound, in test [5] (10 and 30 mg/kg, day 51), the “HOMA-IR compared to HFD Vehicle (in words)” value is on record as “did not alter”, the “Plasma glucose compared to HFD Vehicle (in words)” value is on record as “did not alter” and the “Plasma insulin compared to HFD Vehicle (in words)” value is on record as “did not alter”.
As for `COc1ccc2[nH]cc(CCNC(C)=O)c2c1` [Melatonin, N-acetyl-5-methoxytryptamine], at MT1 receptor, the Emax was 100%.
Take `CCOc1ccc(Cc2cc([C@@H]3O[C@H](CO)[C@@H](O)[C@H](O)[C@H]3O)ccc2Cl)cc1` [Dapagliflozin]: in test [2] (5 mg/kg), the Fat is 16.8 ± 1.3^ %, the Final carcass weight is on record as 564.5 ± 9.4 g, the Protein is reported as 20.6 ± 0.4% and the Water is given as 58.9 ± 1.0^ %. Besides, in test [5] (setting [11]), the “HOMA-IR change compared to HFD Vehicle” value is −66.7%, the “Plasma glucose change compared to HFD Vehicle” value is −21.6% and the “Plasma insulin change compared to HFD Vehicle” value was −56.7%. In addition, in test [3] (setting [12]), the “Brown adipose tissue weight” value is recorded as 0.679 ± 0.047, the “Epididymal fat pads weight” value is given as 12.2 ± 0.7, the Gastrocnemius weight came out at 3.34 ± 0.09 and the Liver weight amounted to 20.9 ± 0.5. In addition, the Liver weight in test [3] (5 mg/kg, data adjusted for BW on day 65/66, mean ± SEM) was found to be 21.6 ± 0.3. In addition, in test [3] (setting [13]), the “Brown adipose tissue weight” value stood at 0.697 ± 0.050, the “Epididymal fat pads weight” value is reported as 13.0 ± 0.7 and the Gastrocnemius weight is 3.37 ± 0.09. Further, in test [3] (5 mg/kg, data corrected for the terminal BW, p<0.01), the “Liver weight change compared to HFD Vehicle” value is “+10.8%”. Also, the “Histopathology parameters (steatosis, lobular inflammation, hepatocellular ballooning, NAS) versus HFD Vehicle” value in test [4] (5 mg/kg) is on record as “no effect”. Further, in test [6], the “Liver glycogen concentration compared to HFD Vehicle (in words)” value is recorded as “No effect” and the “Liver glycogen content compared to HFD Vehicle (in words)” value is listed as “No effect”.
